Reference: a melting point compilation (Tetko et al.)

Structure (SMILES)	melting point [°C]
Cc1ccc(C(=O)NCCN)cc1F	71 to 73
O=C(NC1CC=CCC1)C(F)(F)F (configuration not stated)	58 to 60
CN(C)C(=O)Cn1ccc2cc(N)ccc21	124 to 126
CC(C)Oc1ccc(C(N)=S)cc1	152 to 154
CC(=O)c1c[nH]c2cc(Br)ccc12	239 to 241
O=C(O)c1ccc(-c2cccc(OC(F)(F)F)c2)s1	149 to 151
COc1ccccc1NCCC(=O)O	84 to 86
CC(C)(C)OC(=O)N1CCCCCC1C(N)=NO (configuration not stated)	150 to 152
O=C(O)c1ccc(N/N=C/c2cccc(F)c2)cc1	229 to 231
Nc1cccc(C=CC(=O)O)c1	173 to 175
O=c1cc(-c2ccccc2)c2cc(Cl)ccc2[nH]1	257 to 259
COc1ccc(Oc2ncccc2N)cc1	149 to 151
Cc1ccnc(-c2cccc(N)c2)n1	123 to 125
O=Cc1ccc(OCCBr)c(Cl)c1	61 to 63
O=C(O)C1CCCN1C(=O)c1ccco1 (configuration not stated)	185 to 187
O=c1c2ccccc2nc(S)n1CCCN1CCOCC1	175 to 177
N#Cc1ccc(Cl)cc1NCC1CC1	52 to 54
Nc1ccnc2ccnn12	198 to 200
C=CCn1c(S)n[nH]c1=O	135 to 137
CS(=O)c1ccc(N)cc1F (configuration not stated)	109 to 111
Sc1nc(C2CC2)nc2ccccc12	219 to 221
NC(C(=O)O)c1ccc(Cl)cc1 (configuration not stated)	219 to 221
COc1cc(C(=O)O)cc(NC(C)=O)c1OC	229 to 231
CCN(CC)S(=O)(=O)c1ccc(OC(C)C)c(N)c1	89 to 91

Structure (SMILES)	melting point [°C]
COC(=O)C1Cc2ccccc2CN1C(=O)CCl (configuration not stated)	85 to 87
O=C(O)c1c[nH]nc1-c1ccc(Cl)cc1	276 to 278
Cc1nc(NN)c2cc(-c3ccccc3)sc2n1	163 to 165
Cc1nc2nnnn2c(C)c1CCC(=O)O	187 to 189
Cc1ccccc1COc1cccc(N)c1	61 to 63
OC1(CNCc2ccccc2)CCc2ccccc21 (configuration not stated)	54 to 56
O=C(CCl)Nc1cccnc1	179 to 181
CC1(c2ccc3c(c2)OCO3)NC(=O)NC1=O (configuration not stated)	197 to 199
Cn1c(C2CC2)nc2c1CCNC2	169 to 171
CS(=O)(=O)c1ccc(O)c(N)c1	155 to 157
O=C(O)CCC(=O)c1csc2ccccc12	139 to 141
O=C(O)C1=NC=CN2CCS(=O)(=O)N=C12	183 to 187
CCOC(=O)c1c(N)sc2c1CC(C)(C)NC2(C)C	95 to 97
NC(=O)c1ccc(F)c(N)c1	137 to 139
CCOC(=O)c1ccc(S(=O)(=O)N2CCC(C(=O)O)CC2)o1	170 to 172
N#CCN1C(=O)c2ccccc2C1=O	125 to 127
CC(C)(C)c1ccc(C2(C(=O)O)CCC2)cc1	179 to 181
COc1ccc2cc(CCl)c(Cl)nc2c1	133 to 135
N#Cc1c(Cl)nc2ccccn12	181 to 183
NS(=O)(=O)Cc1cccc(C(=O)O)c1	234 to 236
NC(=O)Nc1ccc(Cl)c(N)c1	176 to 178
CC(Cl)C(=O)NCCc1ccc(S(N)(=O)=O)cc1 (configuration not stated)	159 to 161
CCOC(=O)Cc1cc(=O)oc2ccc(O)cc12	173 to 175
CC(=O)c1ccc2c(c1)CC(=O)N2C	176 to 178

Structure (SMILES)	melting point [°C]
Nc1nc(-c2cccnc2)no1	266 to 268
O=C(O)C1SCCS1	84 to 86
Cc1csc(Sc2ccc(N)cc2Cl)n1	112 to 114
O=C(CCl)Nc1ccc([N+](=O)[O-])cc1Br	165 to 167
O=C(O)CSCc1cccc(Br)c1	70 to 80
N#Cc1c(C(=O)O)cc(C2CC2)[nH]c1=S	258 to 260
CC1CN(S(=O)(=O)Cl)CC(C)O1 (configuration not stated)	74 to 76
O=C(O)CCCNc1nc2ccccc2s1	110 to 112
CC(=O)Nc1cc(N)c(F)cc1F	104 to 106
NS(=O)(=O)Cc1ccc(CO)cc1	118 to 120
NNC(=O)Cc1cn2ccsc2n1	97 to 101
O=C(O)c1cc(-c2ccccc2)nc2c1cnn2Cc1ccncc1	279 to 281
CCN(C(=O)N1CCC(C(=O)O)CC1)C(C)C	107 to 109
COc1ccc(C#N)c(N)c1	91 to 93
CC(c1ccco1)N(C(=O)CCl)c1ccccn1 (configuration not stated)	87 to 89
O=C1NC(=O)N(Cc2cccs2)C1=O	170 to 172
Nc1nc(-c2ccc(NC(=O)c3ccccc3)cc2)cs1	216 to 218
O=C(O)CC1C(=O)Nc2ccccc21 (configuration not stated)	214 to 216
CN(CC(=O)O)S(=O)(=O)c1ccc2c(c1)OCCO2	141 to 143
O=C(CCl)c1cn(-c2cccc(C(F)(F)F)c2)nn1	162 to 164
Nc1cc2c(cc1Sc1ccccc1)OCCO2	74 to 76
CCOc1ccc(NS(=O)(=O)c2ccc(OC)c(N)c2)cc1	94 to 95
COC(=O)C(C)Nc1ccc([N+](=O)[O-])cc1 (configuration not stated)	99 to 101
CC(C)(C)n1ncc(C#N)c1N	90 to 92
